Measured values reported in publication PMC3254698 (Bioorganic & medicinal chemistry letters, 2008).

Target: presenilin-1 (Homo sapiens, UniProt P49768)
Format: biochemical

CC(C)C[C@H](NC(=O)[C@H](Cc1ccccc1)C[C@@H](O)[C@H](Cc1ccc(C(=O)c2ccccc2)cc1)NC(=O)OC(C)(C)C)C(=O)N[C@@H](Cc1ccccc1)C(=O)NCCCCCNC(=O)CCCC[C@@H]1SC[C@@H]2NC(=O)N[C@@H]21 [compound 3]
IC50: 600 pM
